Data taken from patent US11377453B2, “Crystal of compound having JAK-inhibiting activity” (NIPPON SHINYAKU CO., LTD., priority 2016, dated 2022).
Structures can show the parent of a compound that is named as a salt.

Key:
Type in all cases: biochemical
[1] = biological target: T1, JAK1 (Homo sapiens, UniProt P23458); experiment: JAK tyrosine kinase inhibitory activity in the presence of 1 mM ATP (ELISA), JAK1
T1 construct: purchased Carna Biosciences, Inc
Procedure: (§1) The test compound was dissolved in dimethyl sulfoxide (DMSO) to 10 mM and further diluted with DMSO to the concentrations of 1000, 100, 10, 1, 0.1 and 0.01 μM, respectively. For JAK1, these solutions of the test compound at the six concentrations 10 mM, 1000 μM, 100 μM, 10 μM, 1 μM and 0.1 μM were used. For JAK2 and JAK3, these solutions of the test compound at the six concentrations 1000 μM, 100 μM, 10 μM, 1 μM, 0.1 μM and 0.01 μM were used. The test compound solutions were diluted further to 20-fold with an assay buffer to obtain a sample solution. 15 mM Tris-HCl (pH7.5), 0.01 (v/v) % Tween-20 and 1 mM dithiothreitol were used as an assay buffer. DMSO was diluted to 20-fold with the assay buffer and was used as a negative control.
(§2) The activity was determined by ELISA method. Each of the sample solutions was added to a streptavidin coated 96-well plate (DELFIA Strip Plate 8×12 well, PerkinElmer) at 10 μL/well (n=2). […] Finally, JAK tyrosine kinase (Carna Biosciences, Inc.), which was previously diluted with the assay buffer to 7.5 nM for JAK1 and 0.75 nM for JAK2 and JAK3, was added to the plate at 20 μL/well, and the plate was incubated at 30° C. for 1 h. The plate was washed four times with buffer (50 mM Tris-HCl (pH 7.5), 150 mM NaCl, 0.02 (v/v) % Tween-20). A blocking buffer (0.1% Bovine Serum Albumin, 50 mM Tris-HCl (pH 7.5), 150 mM NaCl, 0.02 (v/v) % Tween-20) was added to the plate at 150 μL/well, and the plate was blocked at 30° C. for 1 h. The blocking buffer was removed, and a horse radish peroxidase-labeled anti-phosphorylated tyrosine antibody (BD Biosciences, Inc.) (diluted to 10000-fold with the blocking buffer) was added to the plate at 100 μL/well, and the plate was incubated at 30° C. for 30 min. The plate was washed with the washing buffer four times, and 3,3′,5,5′-tetramethylbenzidine solution (Nacalai Tesque) was added to the plate at 100 μL/well to develop the color for 10 minutes. To the plate was added 0.1 M sulfuric acid at 100 μL/well to stop the reaction. The absorbance at 450 nm was measured using a microplate reader (BIO-RAD).

[2] = biological target: T2, JAK2 (Homo sapiens, UniProt O60674); experiment: JAK tyrosine kinase inhibitory activity in the presence of 1 mM ATP (ELISA), JAK2
T2 construct: purchased Carna Biosciences, Inc
T2 sequence (O60674 whole entry): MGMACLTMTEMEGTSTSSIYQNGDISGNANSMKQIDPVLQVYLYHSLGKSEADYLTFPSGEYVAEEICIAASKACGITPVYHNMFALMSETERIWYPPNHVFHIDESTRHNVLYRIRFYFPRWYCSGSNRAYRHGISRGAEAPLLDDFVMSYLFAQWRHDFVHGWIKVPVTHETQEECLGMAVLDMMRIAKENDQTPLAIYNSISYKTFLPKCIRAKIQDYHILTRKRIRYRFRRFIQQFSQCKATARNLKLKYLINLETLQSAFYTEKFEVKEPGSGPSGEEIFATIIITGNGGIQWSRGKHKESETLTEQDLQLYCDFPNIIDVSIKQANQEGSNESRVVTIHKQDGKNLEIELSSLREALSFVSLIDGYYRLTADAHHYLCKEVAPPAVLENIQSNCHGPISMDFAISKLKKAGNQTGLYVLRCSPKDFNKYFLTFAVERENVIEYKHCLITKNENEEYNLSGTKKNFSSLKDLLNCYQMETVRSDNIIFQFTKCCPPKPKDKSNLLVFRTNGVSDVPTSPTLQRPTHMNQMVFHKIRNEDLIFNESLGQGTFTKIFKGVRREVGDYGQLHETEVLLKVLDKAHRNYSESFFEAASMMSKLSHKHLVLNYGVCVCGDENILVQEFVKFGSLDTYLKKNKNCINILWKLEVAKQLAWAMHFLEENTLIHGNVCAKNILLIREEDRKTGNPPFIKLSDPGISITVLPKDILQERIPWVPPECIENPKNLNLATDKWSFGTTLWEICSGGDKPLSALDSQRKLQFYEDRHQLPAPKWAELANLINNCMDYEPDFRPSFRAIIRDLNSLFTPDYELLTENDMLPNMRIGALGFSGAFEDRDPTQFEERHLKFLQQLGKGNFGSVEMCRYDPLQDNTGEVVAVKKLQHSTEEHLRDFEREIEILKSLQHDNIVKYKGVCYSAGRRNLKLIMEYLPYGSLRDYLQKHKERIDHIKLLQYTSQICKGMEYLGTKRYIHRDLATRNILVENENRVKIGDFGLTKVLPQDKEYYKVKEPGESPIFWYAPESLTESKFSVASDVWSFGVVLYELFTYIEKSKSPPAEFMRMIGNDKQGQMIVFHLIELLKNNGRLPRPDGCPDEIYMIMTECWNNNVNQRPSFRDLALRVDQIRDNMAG
Procedure: as §1, §2

[3] = biological target: T3, JAK3 (Homo sapiens, UniProt P52333); experiment: JAK tyrosine kinase inhibitory activity in the presence of 1 mM ATP (ELISA), JAK3
T3 construct: purchased Carna Biosciences, Inc
T3 sequence (P52333 1-1124): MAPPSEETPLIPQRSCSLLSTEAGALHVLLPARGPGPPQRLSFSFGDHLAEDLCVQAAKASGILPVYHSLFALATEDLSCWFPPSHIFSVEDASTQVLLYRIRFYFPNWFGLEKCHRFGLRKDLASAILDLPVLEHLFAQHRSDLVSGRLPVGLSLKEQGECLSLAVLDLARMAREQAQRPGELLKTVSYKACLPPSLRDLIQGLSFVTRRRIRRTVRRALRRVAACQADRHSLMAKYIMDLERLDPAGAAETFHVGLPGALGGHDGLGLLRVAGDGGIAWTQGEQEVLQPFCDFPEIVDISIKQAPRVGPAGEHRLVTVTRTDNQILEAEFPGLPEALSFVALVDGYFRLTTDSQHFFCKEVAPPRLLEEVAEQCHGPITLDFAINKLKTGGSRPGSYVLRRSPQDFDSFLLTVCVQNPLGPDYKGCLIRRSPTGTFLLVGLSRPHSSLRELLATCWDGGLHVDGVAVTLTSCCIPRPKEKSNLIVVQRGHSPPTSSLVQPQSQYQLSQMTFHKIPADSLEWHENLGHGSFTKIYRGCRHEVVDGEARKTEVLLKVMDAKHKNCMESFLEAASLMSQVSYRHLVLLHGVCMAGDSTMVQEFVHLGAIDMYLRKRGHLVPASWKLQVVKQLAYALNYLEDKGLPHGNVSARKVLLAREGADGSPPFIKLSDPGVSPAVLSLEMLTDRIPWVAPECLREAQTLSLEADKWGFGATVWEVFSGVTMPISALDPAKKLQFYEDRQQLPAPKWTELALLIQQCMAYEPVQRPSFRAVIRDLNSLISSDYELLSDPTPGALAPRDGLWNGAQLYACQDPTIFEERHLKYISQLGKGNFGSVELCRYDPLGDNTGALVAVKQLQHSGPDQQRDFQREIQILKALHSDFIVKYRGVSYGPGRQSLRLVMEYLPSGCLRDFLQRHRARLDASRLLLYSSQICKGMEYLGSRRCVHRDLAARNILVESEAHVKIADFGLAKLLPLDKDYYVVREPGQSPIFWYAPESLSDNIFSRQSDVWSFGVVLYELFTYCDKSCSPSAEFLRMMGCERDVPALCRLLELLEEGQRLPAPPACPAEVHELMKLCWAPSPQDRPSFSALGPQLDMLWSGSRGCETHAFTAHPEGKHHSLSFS
Procedure: as §1, §2

T1 sequence (P23458 whole entry): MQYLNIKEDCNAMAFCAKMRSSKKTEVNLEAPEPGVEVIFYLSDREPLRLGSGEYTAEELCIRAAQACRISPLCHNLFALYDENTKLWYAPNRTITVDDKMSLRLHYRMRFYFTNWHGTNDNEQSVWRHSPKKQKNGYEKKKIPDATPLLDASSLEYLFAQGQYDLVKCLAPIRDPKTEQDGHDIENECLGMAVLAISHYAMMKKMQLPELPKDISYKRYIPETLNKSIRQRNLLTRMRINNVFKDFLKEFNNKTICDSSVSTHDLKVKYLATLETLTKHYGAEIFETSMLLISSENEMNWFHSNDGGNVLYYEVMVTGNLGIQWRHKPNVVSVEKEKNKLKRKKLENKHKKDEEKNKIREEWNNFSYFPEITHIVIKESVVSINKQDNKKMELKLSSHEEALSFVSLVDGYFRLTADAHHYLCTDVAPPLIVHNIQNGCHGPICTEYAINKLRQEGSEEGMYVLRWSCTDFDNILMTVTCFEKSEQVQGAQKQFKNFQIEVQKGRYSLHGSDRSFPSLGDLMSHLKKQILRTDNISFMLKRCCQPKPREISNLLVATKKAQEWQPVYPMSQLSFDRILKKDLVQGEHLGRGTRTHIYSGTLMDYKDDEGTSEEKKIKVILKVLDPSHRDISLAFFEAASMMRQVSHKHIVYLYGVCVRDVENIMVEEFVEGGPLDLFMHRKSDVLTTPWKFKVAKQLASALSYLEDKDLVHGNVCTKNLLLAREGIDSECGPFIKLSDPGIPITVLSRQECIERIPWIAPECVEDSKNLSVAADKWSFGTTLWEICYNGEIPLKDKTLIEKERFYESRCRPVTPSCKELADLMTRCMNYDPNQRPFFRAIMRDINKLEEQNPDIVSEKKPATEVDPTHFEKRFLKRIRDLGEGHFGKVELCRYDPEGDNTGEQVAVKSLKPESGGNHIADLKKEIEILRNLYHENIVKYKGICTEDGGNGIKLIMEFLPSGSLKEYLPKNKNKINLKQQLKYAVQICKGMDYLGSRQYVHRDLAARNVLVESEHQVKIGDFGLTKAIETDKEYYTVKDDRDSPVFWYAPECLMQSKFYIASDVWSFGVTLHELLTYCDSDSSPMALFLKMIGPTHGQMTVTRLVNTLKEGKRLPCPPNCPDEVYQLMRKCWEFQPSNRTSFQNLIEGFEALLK

IC50 [1] | IC50 [2] | IC50 [3] | Structure (SMILES)
270 nM | 2600 nM | 1900 nM | COC(=O)NC1CCN(C(=O)c2cc(N[C@@H](C)C3CC3)nc(-c3cnn4ccsc34)n2)CC1 [Example 3, Methyl (1-{[6-{[(1S)-1-cyclopropylethyl]amino}-2-(pyrazolo[5,1-b][1,3]thiazol-7-yl)pyrimidin-4-yl]carbonyl}piperidin-4-yl)carbamate Tosylate Monohydrate]
470 nM | 5700 nM | 6000 nM | CC[C@@H](C)Nc1cc(C(=O)N2CCC(NC(=O)OC)CC2)nc(-c2cnn3ccsc23)n1 [Example 2, Methyl [1-({6-[(2R)-butan-2-ylamino]-2-(pyrazolo[5,1-b][1,3]thiazol-7-yl)pyrimidin-4-yl}carbonyl)piperidin-4-yl]carbamate Tosylate Monohydrate]
310 nM | 3700 nM | 3000 nM | CC[C@H](C)Nc1cc(C(=O)N2CCC(NC(=O)OC)CC2)nc(-c2cnn3ccsc23)n1 [Example 1, Methyl [1-({6-[(2S)-butan-2-ylamino]-2-(pyrazolo [5,1-b][1,3]thiazol-7-yl)pyrimidin-4-yl}carbonyl)piperidin-4-yl]carbamate Tosylate Monohydrate]
